Columns and labels:
[1] = Cmax in Wistar-Imamichi rat at 100 mg/kg, po via gavage once daily for 28 days measured on day 28 post dose; assay type: ADME, organism-based; set-up: dose 100 mg/kg, route oral; details: in vivo
Rattus norvegicus [2] = assay: Toxicity in Zucker diabetic fatty rat assessed as body weight gain administered orally once daily for 14 day; assay type: organism-based; details: in vivo, po, 336 h
[3] = Metabolic stability in rat liver microsomes after 0.5 hrs; assay type: ADME, microsome; details: read-out: Stability
Rattus norvegicus [4] = assay: Glucose-lowering effect in Zucker diabetic fatty rat assessed as reduction in plasma glucose level at 30 mg/kg, po administered once daily for 14 days measured on day 14 post last dose relative to control; assay type: functional; set-up: scale not given: the % may be the effect or the level left
[5] = AUC (0 to 24 hrs) in Zucker diabetic fatty rat at 3 mg/kg, po dosed once daily for 14 days and followed by additional administeration on day 15; assay type: ADME, organism-based; set-up: dose 3 mg/kg, time < 24 hr, route oral; details: in vivo
Rattus norvegicus [6] = assay: Toxicity in Wistar-Imamichi rat assessed as clinical abnormality at 30 to 300 mg/kg, po administered via gavage once daily for 28 days; assay type: organism-based; details: in vivo, 672 h
[7] = AUC (0 to 24 hrs) in Wistar-Imamichi rat at 300 mg/kg, po via gavage once daily for 28 days measured on day 28 post dose; assay type: ADME, organism-based; set-up: dose 300 mg/kg, time < 24 hr, route oral; details: in vivo
Rattus norvegicus [8] = assay: Toxicity in Zucker diabetic fatty rat assessed as body weight gain at 0.3 mg/kg, po administered once daily for 14 days relative to control; assay type: organism-based; details: in vivo, 336 h
Rattus norvegicus [9] = assay: Toxicity in Wistar-Imamichi rat assessed as death at 30 to 300 mg/kg, po administered via gavage once daily for 28 days; assay type: organism-based; details: in vivo, 672 h
Rattus norvegicus [10] = assay: Toxicity in Wistar-Imamichi rat assessed as reduction in RBC count at 30 to 300 mg/kg, po administered via gavage once daily for 28 days; assay type: organism-based; details: in vivo, 672 h
[11] = AUC (0 to 24 hrs) in Wistar-Imamichi rat at 30 mg/kg, po via gavage once daily for 28 days measured on day 28 post dose; assay type: ADME, organism-based; set-up: time < 24 hr, dose 30 mg/kg, route oral; details: in vivo
[12] = AUC (0 to 24 hrs) in Wistar-Imamichi rat at 100 mg/kg, po via gavage once daily for 28 days measured on day 28 post dose; assay type: ADME, organism-based; set-up: time < 24 hr, dose 100 mg/kg, route oral; details: in vivo
[13] = AUC (0 to 24 hrs) in Zucker diabetic fatty rat at 0.3 mg/kg, po dosed once daily for 14 days and followed by additional administeration on day 15; assay type: ADME, organism-based; set-up: time < 24 hr, dose 0.3 mg/kg, route oral; details: in vivo
[14] = biological target: T1, Peroxisome proliferator-activated receptor alpha (Homo sapiens, UniProt Q07869); assay: Agonist activity at recombinant human GAL4-DBD fused PPARalpha LBD expressed in COS7 cells after 24 hrs by luciferase reporter gene assay; assay type: cell-based
T1 sequence (Q07869 whole entry): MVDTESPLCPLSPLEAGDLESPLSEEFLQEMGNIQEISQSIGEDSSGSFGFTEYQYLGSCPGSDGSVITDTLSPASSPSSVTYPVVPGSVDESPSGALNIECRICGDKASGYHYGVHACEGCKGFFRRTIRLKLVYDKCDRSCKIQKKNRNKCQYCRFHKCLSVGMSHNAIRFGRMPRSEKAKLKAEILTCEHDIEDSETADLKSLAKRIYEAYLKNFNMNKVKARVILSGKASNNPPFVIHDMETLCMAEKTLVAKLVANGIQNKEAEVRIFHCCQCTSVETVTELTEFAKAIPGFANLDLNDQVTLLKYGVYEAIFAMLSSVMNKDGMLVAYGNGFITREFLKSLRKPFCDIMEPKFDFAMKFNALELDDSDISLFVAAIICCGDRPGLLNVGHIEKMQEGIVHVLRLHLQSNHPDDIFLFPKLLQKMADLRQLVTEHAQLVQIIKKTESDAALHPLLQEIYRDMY

[15] = Tmax in Wistar-Imamichi rat at 30 mg/kg, po via gavage once daily for 28 days measured on day 28 post dose; assay type: ADME, organism-based; details: in vivo
[16] = Cmax in Zucker diabetic fatty rat at 0.3 mg/kg, po dosed once daily for 14 days and followed by additional administeration on day 15; assay type: ADME, organism-based; set-up: dose 0.3 mg/kg, route oral; details: in vivo
Rattus norvegicus [17] = assay: Toxicity in Wistar-Imamichi rat assessed as effect on hemodilution by measuring increase in heart weight at 300 mg/kg, po administered via gavage once daily for 28 days; assay type: organism-based; details: in vivo, 672 h
[18] = Tmax in Wistar-Imamichi rat at 300 mg/kg, po via gavage once daily for 28 days measured on day 28 post dose; assay type: ADME, organism-based; details: in vivo
[19] = Cmax in Zucker diabetic fatty rat at 3 mg/kg, po dosed once daily for 14 days and followed by additional administeration on day 15; assay type: ADME, organism-based; set-up: dose 3 mg/kg, route oral; details: in vivo
[20] = AUC (0 to 24 hrs) in Wistar-Imamichi rat at 0.3 mg/kg, po via gavage once daily for 28 days measured on day 28 post dose; assay type: ADME, organism-based; set-up: time < 24 hr, dose 0.3 mg/kg, route oral; details: in vivo
[21] = Tmax in Zucker diabetic fatty rat at 3 mg/kg, po dosed once daily for 14 days and followed by additional administeration on day 15; assay type: ADME, organism-based; details: in vivo
[22] = Cmax in Wistar-Imamichi rat at 300 mg/kg, po via gavage once daily for 28 days measured on day 28 post dose; assay type: ADME, organism-based; set-up: dose 300 mg/kg, route oral; details: in vivo
Rattus norvegicus [23] = assay: Toxicity in Zucker diabetic fatty rat assessed as body weight gain at 3 mg/kg, po administered once daily for 14 days relative to control; assay type: organism-based; details: in vivo, 336 h
Rattus norvegicus [24] = assay: Toxicity in Wistar-Imamichi rat assessed as elevation in AST activity at 30 to 300 mg/kg, po administered via gavage once daily for 28 days; assay type: organism-based; details: in vivo, 672 h
Rattus norvegicus [25] = assay: Toxicity in Wistar-Imamichi rat assessed as histopathological changes in liver at 30 to 300 mg/kg, po administered via gavage once daily for 28 days; assay type: organism-based; details: in vivo, 672 h
Rattus norvegicus [26] = assay: Toxicity in Wistar-Imamichi rat assessed as effect on hematocrit at 30 to 300 mg/kg, po administered via gavage once daily for 28 days; assay type: organism-based; details: in vivo, 672 h
[27] = Plasma concentration in hyperglycemic KK/Ta mouse at 30 mg/kg/day, po administered through diet for 3 days measured on day 3 post last dose; assay type: ADME, organism-based
Rattus norvegicus [28] = assay: Toxicity in Zucker diabetic fatty rat assessed as body weight gain at 30 mg/kg, po administered once daily for 14 days relative to control; assay type: organism-based; details: in vivo, 336 h
[29] = Tmax in Wistar-Imamichi rat at 100 mg/kg, po via gavage once daily for 28 days measured on day 28 post dose; assay type: ADME, organism-based; details: in vivo
Mus musculus [30] = assay: Toxicity in hyperglycemic KK/Ta mouse assessed as body weight gain at 30 mg/kg/day, po administered through diet for 3 days relative to control; assay type: organism-based; details: in vivo, 72 h
[31] = AUC (0 to 24 hrs) in Zucker diabetic fatty rat at 30 mg/kg, po dosed once daily for 14 days and followed by additional administeration on day 15; assay type: ADME, organism-based; set-up: time < 24 hr, dose 30 mg/kg, route oral; details: in vivo
[32] = Cmax in Wistar-Imamichi rat at 30 mg/kg, po via gavage once daily for 28 days measured on day 28 post dose; assay type: ADME, organism-based; set-up: dose 30 mg/kg, route oral; details: in vivo
[33] = Tmax in Zucker diabetic fatty rat at 0.3 mg/kg, po dosed once daily for 14 days and followed by additional administeration on day 15; assay type: ADME, organism-based; details: in vivo
Rattus norvegicus [34] = assay: Toxicity in Wistar-Imamichi rat assessed as elevation in ALT activity at 30 to 300 mg/kg, po administered via gavage once daily for 28 days; assay type: organism-based; details: in vivo, 672 h
Mus musculus [35] = assay: Glucose-lowering effect in hyperglycemic KK/Ta mouse assessed as reduction in plasma glucose level at 30 mg/kg/day, po administered through diet for 3 days relative to control; assay type: functional; set-up: scale not given: the % may be the effect or the level left
Rattus norvegicus [36] = assay: Glucose-lowering effect in Zucker diabetic fatty rat assessed as reduction in plasma glucose level at 3 mg/kg, po administered once daily for 14 days measured on day 14 post last dose relative to control; assay type: functional; set-up: scale not given: the % may be the effect or the level left
[37] = Cmax in Wistar-Imamichi rat at 0.3 mg/kg, po via gavage once daily for 28 days measured on day 28 post dose; assay type: ADME, organism-based; set-up: dose 0.3 mg/kg, route oral; details: in vivo
[38] = Tmax in Zucker diabetic fatty rat at 30 mg/kg, po dosed once daily for 14 days and followed by additional administeration on day 15; assay type: ADME, organism-based; details: in vivo
[39] = Cmax in Zucker diabetic fatty rat at 30 mg/kg, po dosed once daily for 14 days and followed by additional administeration on day 15; assay type: ADME, organism-based; set-up: dose 30 mg/kg, route oral; details: in vivo
Rattus norvegicus [40] = assay: Glucose-lowering effect in Zucker diabetic fatty rat assessed as reduction in plasma glucose level at 0.3 mg/kg, po administered once daily for 14 days measured on day 14 post last dose relative to control; assay type: functional; set-up: scale not given: the % may be the effect or the level left

In the case of `Cn1c(COc2cccc(C(=O)O)c2)nc2ccc(Oc3ccc(Cl)c(F)c3)cc21`, the Cmax [1] is reported as 14900 ng/mL, the Activity (Rattus norvegicus [2]) is reported as “Dose-dependent effect” and the remaining at 0.5 h [3] is reported as 94%. For the same molecule, the Activity (Rattus norvegicus [4]) was 74.9%, the AUC at 24 h [5] was 6750 ng·h/mL and the Activity (Rattus norvegicus [6]) was “Non-Toxic”. The AUC at 24 h [7] was 190000 ng·h/mL, the Activity (Rattus norvegicus [8]) was 2.3% and the Activity (Rattus norvegicus [9]) was “Non-Toxic”. The Activity (Rattus norvegicus [10]) was “Non-Toxic”, the AUC at 24 h [11] was 93700 ng·h/mL and the AUC at 24 h [12] was 192000 ng·h/mL. It also gave an AUC at 24 h [13] of 1740 ng·h/mL, an EC50 [14] greater than 10 µM and a Tmax [15] of 4 h. For the same molecule, the Cmax [16] was 180 ng/mL, the Activity (Rattus norvegicus [17]) was 9.9% and the Tmax [18] was 3 h. It also gave a Cmax [19] of 920 ng/mL, an AUC at 24 h [20] of 1740 ng·h/mL and a Tmax [21] of 2.4 h. For the same molecule, the Cmax [22] was 22600 ng/mL, the Activity (Rattus norvegicus [23]) was 12.4% and the Activity (Rattus norvegicus [24]) was “Toxic”. The Activity (Rattus norvegicus [25]) was “Non-Toxic”, the Activity (Rattus norvegicus [26]) was “Non-Toxic” and the concentration at 72 h [27] was 570 ng/mL. The Activity (Rattus norvegicus [28]) was 16.7%, the Tmax [29] was 5 h and the Activity (Mus musculus [30]) was 4.4%. For the same molecule, the AUC at 24 h [31] was 55800 ng·h/mL, the Cmax [32] was 9100 ng/mL and the Tmax [33] was 6.8 h. The Activity (Rattus norvegicus [34]) was “Toxic”, the Activity (Mus musculus [35]) was 43.2% and the Activity (Rattus norvegicus [36]) was 43.8%. It also gave a Cmax [37] of 180 ng/mL, a Tmax [38] of 2 h and a Cmax [39] of 8080 ng/mL. It also gave an Activity (Rattus norvegicus [40]) of 16.6%.

— ChEMBL document CHEMBL4152365, “Discovery of DS-6930, a potent selective PPARγ modulator. Part I: Lead identification” (Bioorg Med Chem, 2018)
